These results are taken from PMC11178545, “Alkynyl nicotinamides show antileukemic activity in drug-resistant acute myeloid leukemia” (The Journal of Clinical Investigation, 2024).

Structures are written as SMILES. Several values for one entry are separate records, joined by “and”; a condition that tells them apart may be missing. Equal values may be shown once.

Type in all cases: cell-based, human
One experiment has as its system HL60 cells. The experiment is described as follows: HL60 proliferation, colorimetric assay (Supplementary Figure 3C). The settings on record: replicates.
For a further experiment, the system named is MV411 cells. The experiment can be described thus: MV411 proliferation, colorimetric assay (Supplementary Figure 3B). The conditions noted are these: replicates.
The subject of experiment [1] is MOLM14 FLT3ITD-D835Y cell line. The experiment can be described thus: AML cell line inhibition, WST-1 (SAR). The settings on record: for activity against MOLM14 FLT3ITD-D835Y relative to HSN748: in words. On the procedure:
MOLM14 and MV411 cells were purchased from ATCC. […] MV411-luc cells were a gift from Sharyn Baker (The Ohio State University College of Pharmacy, Columbus, Ohio, USA). All cells were grown in RPMI supplemented with 10% FBS. One day prior to drug addition, 5 × 10^3 cells/well were plated in a 96-well plate. The next morning, HSN748 was serially diluted in DMSO, added to RPMI media and then added to cells. The assay was terminated 72 hours later with water soluble tertrazolium (WST-1; Clontech) and plates were read after an additional 4-hour incubation at 37°C using BioTeK HT plate reader (BioTek). Data were analyzed and graphed using GraphPad Prism Software (GraphPad). IC50s were calculated on GraphPad.
Background: Tetrazolium assays rely on reduction of a dye to a coloured formazan, in cell work by metabolically active cells.

Where [2] appears, read: x value 0 (log concentration, unit not given).
Where [3] appears, read: x value 0.69897 (log concentration, unit not given).
The mark [4] stands for this setting: x value 1.39794 (log concentration, unit not given).
[5] abbreviates: x value 2.39794 (log concentration, unit not given).
[6] abbreviates: x value -0.69897 (log concentration, unit not given).
Setting [7] is: x value -1.39794 (log concentration, unit not given).
[8] abbreviates: x value -2.09691 (log concentration, unit not given).
The mark [9] stands for this setting: x value -2.5 (log concentration, unit not given).

For `Cc1ncc(C(=O)Nc2ccc(CN3CCN(C)CC3)c(C(F)(F)F)c2)cc1C#Cc1c(N)ncc2ccc(F)cc12` [HSN431], the “Supplementary Figure 3C - HL-60 proliferation” value is 93.1406 and 104.79 and 91.3545 in the experiment with HL60 cells (setting [2]); 86.445 and 117.675 and 85.9761 with HL60 cells (setting [3]); 87.9524 and 103.186 and 92.9763 in the experiment on HL60 cells (setting [4]); 126.117 and 110.39 and 86.2775 in the experiment with HL60 cells (setting [5]); 96.1336 and 114.392 and 95.3637 with HL60 cells (setting [6]); 90.7292 and 120.586 and 93.4306 with HL60 cells (setting [7]). Besides, the “Supplementary Figure 3C - HL-60 proliferation” value in the experiment on HL60 cells (setting [8]) was 105.759 and 109.435 and 94.5184; with HL60 cells (setting [9]), 100. The “Supplementary Figure 3B - MV411 proliferation” value in the experiment on MV411 cells (setting [2]) is 75.3152 and 61.4891 and 101.659; in the experiment on MV411 cells (setting [3]), 15.6088 and 10.4785 and 24.0352; in the experiment on MV411 cells (setting [4]), 2.141 and 1.436 and 4.623; with MV411 cells (setting [5]), 0.7913 and 0.1901 and 1.639; in the experiment with MV411 cells (setting [6]) it was 87.3357 and 81.8726 and 104.8; in the experiment on MV411 cells (setting [7]), 79.5125 and 72.3173 and 99.56. Moreover, the “Supplementary Figure 3B - MV411 proliferation” value with MV411 cells (setting [8]) was 89.99 and 85.6976 and 105.013; in the experiment with MV411 cells (setting [9]), 100.
As a reminder, the IC50 is the concentration that gives 50% inhibition. As for `CN(C)[C@@H]1CCN(Cc2ccc(NC(=O)c3cncc(C#Cc4cnc5cccnn45)c3)cc2C(F)(F)F)C1` [HSND08], the IC50 in experiment [1] (Homo sapiens, MOLM-14, MOLM14 FLT3ITD-D835Y cell line) is > 50 nM.
Turning to `CN1CCCN(Cc2ccc(NC(=O)c3cncc(C#Cc4cnc5cccnn45)c3)cc2C(F)(F)F)CC1` [HSND10], the “activity against MOLM14 FLT3ITD-D835Y relative to HSN748” value in experiment [1] is reported as “reduced activity”.
Turning to `O=C(Nc1ccc(CN2CCN(CCO)CC2)c(C(F)(F)F)c1)c1cncc(C#Cc2cnc3cccnn23)c1` [HSND12], the “activity against MOLM14 FLT3ITD-D835Y relative to HSN748” value in experiment [1] was “adversely affected the inhibition”.
